Test results reported in ChEMBL document CHEMBL1144430, “Convergent synthesis and pharmacology of substituted tetrazolyl-2-amino-3-(3-hydroxy-5-methyl-4-isoxazolyl)propionic acid analogues” (J Med Chem, 2005).

Key:
Glutamate NMDA receptor = assay: Displacement of [3H]-CGP- 39653 from N-methyl-D-aspartate glutamate receptor of rat brain synaptosomes; format: subcellular
[1] = target: Glutamate receptor ionotropic, AMPA (Rattus norvegicus, UniProt P19490+P19491+P19492+P19493); assay: Displacement of [3H]AMPA from Ionotropic glutamate receptor of in rat brain synaptosomes; format: subcellular
[2] = target: Glutamate receptor ionotropic, kainate; assay: Displacement of [3H]KA from glutamate receptor of rat brain synaptosomes; format: subcellular
Glutamate receptor 4 = Glutamate receptor 4 (Homo sapiens, UniProt P48058); assay: Binding affinity for ionotropic Glutamate receptor AMPA 4 expressed in Sf9 cells
Sequence of Glutamate receptor 4 (P48058 whole entry): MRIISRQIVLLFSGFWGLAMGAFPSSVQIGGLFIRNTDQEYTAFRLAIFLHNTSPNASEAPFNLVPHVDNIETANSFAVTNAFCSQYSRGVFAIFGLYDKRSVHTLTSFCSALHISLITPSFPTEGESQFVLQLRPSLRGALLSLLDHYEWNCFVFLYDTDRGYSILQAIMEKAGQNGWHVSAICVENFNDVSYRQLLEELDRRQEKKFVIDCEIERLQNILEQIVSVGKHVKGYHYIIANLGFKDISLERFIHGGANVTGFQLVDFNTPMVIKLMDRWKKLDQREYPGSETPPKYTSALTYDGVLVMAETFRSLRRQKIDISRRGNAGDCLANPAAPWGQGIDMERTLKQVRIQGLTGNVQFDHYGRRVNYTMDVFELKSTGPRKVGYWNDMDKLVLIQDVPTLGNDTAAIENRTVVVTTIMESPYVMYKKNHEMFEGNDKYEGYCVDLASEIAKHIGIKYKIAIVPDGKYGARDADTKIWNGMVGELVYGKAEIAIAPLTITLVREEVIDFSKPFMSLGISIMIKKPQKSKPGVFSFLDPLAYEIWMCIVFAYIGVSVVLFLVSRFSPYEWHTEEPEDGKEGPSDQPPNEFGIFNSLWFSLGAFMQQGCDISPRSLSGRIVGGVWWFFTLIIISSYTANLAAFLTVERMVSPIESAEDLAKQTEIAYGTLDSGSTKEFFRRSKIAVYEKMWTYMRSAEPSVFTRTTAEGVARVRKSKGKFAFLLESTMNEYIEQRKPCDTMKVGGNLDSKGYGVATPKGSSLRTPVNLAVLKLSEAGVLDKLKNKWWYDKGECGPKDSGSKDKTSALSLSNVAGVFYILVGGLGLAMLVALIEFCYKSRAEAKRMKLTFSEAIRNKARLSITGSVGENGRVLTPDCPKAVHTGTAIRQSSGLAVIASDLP

Glutamate receptor 3 = Glutamate receptor 3 (Homo sapiens, UniProt P42263); assay: Binding affinity for ionotropic Glutamate receptor AMPA 3 expressed in Sf9 cells
Sequence of Glutamate receptor 3 (P42263 whole entry): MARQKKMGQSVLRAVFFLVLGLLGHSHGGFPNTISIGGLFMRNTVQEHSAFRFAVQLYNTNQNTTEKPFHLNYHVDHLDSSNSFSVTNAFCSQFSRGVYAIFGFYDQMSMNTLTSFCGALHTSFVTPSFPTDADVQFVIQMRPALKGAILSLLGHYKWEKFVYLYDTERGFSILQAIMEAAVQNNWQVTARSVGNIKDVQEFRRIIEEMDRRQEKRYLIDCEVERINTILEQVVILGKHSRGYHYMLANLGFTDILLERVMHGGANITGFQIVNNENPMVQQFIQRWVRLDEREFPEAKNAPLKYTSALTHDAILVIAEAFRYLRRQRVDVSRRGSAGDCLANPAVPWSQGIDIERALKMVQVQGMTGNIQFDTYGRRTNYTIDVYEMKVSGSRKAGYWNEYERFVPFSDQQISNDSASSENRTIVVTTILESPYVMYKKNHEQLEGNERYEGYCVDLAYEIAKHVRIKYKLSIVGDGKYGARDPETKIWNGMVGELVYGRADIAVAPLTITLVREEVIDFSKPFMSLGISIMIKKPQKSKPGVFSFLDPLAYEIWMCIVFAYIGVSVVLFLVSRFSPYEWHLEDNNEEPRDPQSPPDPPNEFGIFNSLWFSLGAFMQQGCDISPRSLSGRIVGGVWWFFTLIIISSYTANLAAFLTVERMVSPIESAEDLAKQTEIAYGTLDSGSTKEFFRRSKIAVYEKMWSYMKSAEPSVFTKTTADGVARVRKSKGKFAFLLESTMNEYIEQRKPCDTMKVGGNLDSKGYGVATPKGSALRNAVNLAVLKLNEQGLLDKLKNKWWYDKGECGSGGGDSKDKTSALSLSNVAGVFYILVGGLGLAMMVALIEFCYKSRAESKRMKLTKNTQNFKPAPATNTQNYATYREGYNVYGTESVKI

[3] = In vitro activity at Ionotropic glutamate receptor using cortical wedge assays
Glutamate receptor 1 = Glutamate receptor 1 (Homo sapiens, UniProt P42261); assay: Binding affinity for ionotropic Glutamate receptor AMPA 1 expressed in Sf9 cells
Sequence of Glutamate receptor 1 (P42261 whole entry): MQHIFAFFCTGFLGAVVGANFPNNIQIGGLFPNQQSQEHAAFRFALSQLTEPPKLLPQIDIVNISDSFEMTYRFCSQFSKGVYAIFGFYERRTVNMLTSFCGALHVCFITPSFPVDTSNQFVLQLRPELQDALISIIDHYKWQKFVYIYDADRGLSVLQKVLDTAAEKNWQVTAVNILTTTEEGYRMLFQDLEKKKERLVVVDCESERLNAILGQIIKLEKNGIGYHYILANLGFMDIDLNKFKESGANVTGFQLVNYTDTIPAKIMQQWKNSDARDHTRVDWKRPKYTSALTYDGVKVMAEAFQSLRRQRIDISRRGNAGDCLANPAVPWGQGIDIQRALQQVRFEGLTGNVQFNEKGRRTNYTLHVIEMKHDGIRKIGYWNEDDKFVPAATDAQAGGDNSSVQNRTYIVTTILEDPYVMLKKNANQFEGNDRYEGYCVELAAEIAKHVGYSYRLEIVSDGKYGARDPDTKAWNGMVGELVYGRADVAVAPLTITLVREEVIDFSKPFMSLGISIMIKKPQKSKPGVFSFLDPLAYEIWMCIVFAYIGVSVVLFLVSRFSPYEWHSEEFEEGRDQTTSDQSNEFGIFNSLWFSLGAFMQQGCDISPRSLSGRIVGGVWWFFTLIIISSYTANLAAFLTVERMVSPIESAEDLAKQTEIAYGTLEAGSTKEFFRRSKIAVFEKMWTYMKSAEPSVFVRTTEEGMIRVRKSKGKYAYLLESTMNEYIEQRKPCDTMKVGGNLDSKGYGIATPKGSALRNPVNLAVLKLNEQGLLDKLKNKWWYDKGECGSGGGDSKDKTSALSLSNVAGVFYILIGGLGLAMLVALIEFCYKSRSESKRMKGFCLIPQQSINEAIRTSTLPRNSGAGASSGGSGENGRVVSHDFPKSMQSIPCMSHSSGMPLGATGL

[4] = target: Glutamate receptor ionotropic, kainate 2 (Homo sapiens, UniProt Q13002); assay: Binding affinity for kainate Glutamate receptor GluR6 expressed in Sf9 cells
Glutamate receptor 2 = Glutamate receptor 2 (Homo sapiens, UniProt P42262); assay: Binding affinity for ionotropic Glutamate receptor AMPA 2 expressed in Sf9 cells
Sequence of Glutamate receptor 2 (P42262 whole entry): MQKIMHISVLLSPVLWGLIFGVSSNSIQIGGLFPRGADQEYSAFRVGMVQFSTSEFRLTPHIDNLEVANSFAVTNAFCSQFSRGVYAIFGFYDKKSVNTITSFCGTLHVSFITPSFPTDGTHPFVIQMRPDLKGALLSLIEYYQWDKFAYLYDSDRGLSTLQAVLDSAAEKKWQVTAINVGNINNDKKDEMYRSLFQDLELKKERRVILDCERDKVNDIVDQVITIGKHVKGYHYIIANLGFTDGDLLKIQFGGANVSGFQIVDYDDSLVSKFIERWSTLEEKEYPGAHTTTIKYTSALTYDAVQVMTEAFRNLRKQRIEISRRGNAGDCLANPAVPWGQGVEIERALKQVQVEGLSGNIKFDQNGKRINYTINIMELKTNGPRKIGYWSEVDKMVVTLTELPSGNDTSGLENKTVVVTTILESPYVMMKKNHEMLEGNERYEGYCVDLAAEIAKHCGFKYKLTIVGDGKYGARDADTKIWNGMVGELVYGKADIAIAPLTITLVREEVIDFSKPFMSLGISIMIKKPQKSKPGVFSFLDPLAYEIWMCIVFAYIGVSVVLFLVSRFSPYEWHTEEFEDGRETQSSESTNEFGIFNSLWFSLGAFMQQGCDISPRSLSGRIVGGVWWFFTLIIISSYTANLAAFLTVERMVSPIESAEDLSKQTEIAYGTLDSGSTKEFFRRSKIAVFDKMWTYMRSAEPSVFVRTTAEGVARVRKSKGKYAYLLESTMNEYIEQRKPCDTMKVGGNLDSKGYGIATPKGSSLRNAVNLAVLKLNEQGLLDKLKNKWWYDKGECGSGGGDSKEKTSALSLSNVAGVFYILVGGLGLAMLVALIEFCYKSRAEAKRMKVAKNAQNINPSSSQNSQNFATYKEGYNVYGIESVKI

[5] = target: Glutamate receptor ionotropic, kainate 1 (Homo sapiens, UniProt P39086); assay: Binding affinity for kainate Glutamate receptor GluR5 expressed in Sf9 cells
Sequence of Glutamate receptor ionotropic, kainate 1 (P39086 whole entry): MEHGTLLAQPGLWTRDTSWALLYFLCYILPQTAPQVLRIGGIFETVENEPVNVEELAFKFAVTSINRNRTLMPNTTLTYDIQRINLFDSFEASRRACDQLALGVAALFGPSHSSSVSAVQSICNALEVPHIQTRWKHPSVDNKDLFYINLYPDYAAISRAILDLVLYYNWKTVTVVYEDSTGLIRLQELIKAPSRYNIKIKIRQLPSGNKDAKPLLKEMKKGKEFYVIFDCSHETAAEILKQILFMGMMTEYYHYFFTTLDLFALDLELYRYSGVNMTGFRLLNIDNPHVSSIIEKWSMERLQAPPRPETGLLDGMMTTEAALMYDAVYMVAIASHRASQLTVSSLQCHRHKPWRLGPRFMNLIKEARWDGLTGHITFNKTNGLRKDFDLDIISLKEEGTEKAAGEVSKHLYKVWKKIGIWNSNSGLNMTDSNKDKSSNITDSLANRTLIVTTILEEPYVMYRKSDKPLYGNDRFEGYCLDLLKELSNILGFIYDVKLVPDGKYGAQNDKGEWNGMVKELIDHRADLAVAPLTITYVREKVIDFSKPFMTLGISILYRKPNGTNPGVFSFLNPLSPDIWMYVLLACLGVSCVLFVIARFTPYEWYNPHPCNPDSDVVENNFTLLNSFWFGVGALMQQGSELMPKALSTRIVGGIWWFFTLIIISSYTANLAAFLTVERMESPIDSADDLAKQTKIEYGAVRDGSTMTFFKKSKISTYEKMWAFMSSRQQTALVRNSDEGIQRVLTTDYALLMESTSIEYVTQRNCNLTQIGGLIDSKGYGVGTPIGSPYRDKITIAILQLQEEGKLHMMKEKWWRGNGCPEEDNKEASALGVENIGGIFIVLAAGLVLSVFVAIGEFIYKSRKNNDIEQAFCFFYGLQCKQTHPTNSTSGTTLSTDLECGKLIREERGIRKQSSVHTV

| Structure (SMILES) | Ki (Glutamate NMDA receptor) [µM] | IC50 [1] [µM] | IC50 [2] [µM] | Ki (Glutamate receptor 4) [µM] | Ki (Glutamate receptor 3) [µM] | EC50 [3] [µM] | Ki (Glutamate receptor 1) [µM] | Ki [4] [µM] | Ki (Glutamate receptor 2) [µM] | Ki [5] [µM] |
| --- | --- | --- | --- | --- | --- | --- | --- | --- | --- | --- |
| CCCn1nnnc1-c1onc(O)c1CC(N)C(=O)O (centres undefined) | > 100 | > 100 | > 100 |  |  |  |  |  |  |  |
| Cn1nnc(-c2onc(O)c2CC(N)C(=O)O)n1 (racemic) | > 100 | 0.027 |  |  |  |  |  |  |  |  |
| CCn1nnc(-c2o[nH]c(=O)c2CC(N)C(=O)O)n1 (centres undefined) | > 100 | 0.134 | > 100 | 0.0444 | 0.0448 | 3.5 | 0.145 | > 100 | 0.0802 | 2.92 |
| CCn1nnnc1-c1onc(O)c1CC(N)C(=O)O (centres undefined) | > 100 | 27 | > 100 |  |  |  |  |  |  |  |
| CCCn1nnc(-c2onc(O)c2CC(N)C(=O)O)n1 (centres undefined) | > 100 | 2.5 | > 100 | 0.732 | 1.18 | 32 | 5.15 | > 100 | 1.61 | 5.45 |
| Cn1nnnc1-c1onc(O)c1CC(N)C(=O)O (centres undefined) | > 100 | 54 | > 100 |  |  | > 1000 |  |  |  |  |
| Cn1nnc(-c2o[nH]c(=O)c2C[C@H](N)C(=O)O)n1 | > 1000 | 0.009 |  |  |  |  |  | 18.8 |  | 0.081 |
| CC(C)n1nnc(-c2onc(O)c2CC(N)C(=O)O)n1 (centres undefined) | > 100 | 6.2 | > 100 | 2.35 | 3.71 | 71 | 10 | > 100 | 2.93 | 34.2 |
| CC(C)n1nnnc1-c1onc(O)c1CC(N)C(=O)O (centres undefined) | > 100 | > 100 | > 100 |  |  |  |  |  |  |  |
